Literature values, collected in PubChem BioAssay AID1259409 (Chemical Carcinogenesis Research Information System (CCRIS), 2018).

System: rodent chemically induced tumor inhibition, incidence and multiplicity
Experiment: CCRIS tumor inhibitor studies

In the case of `Clc1ccc(COC(Cn2ccnc2)c2ccc(Cl)cc2Cl)c(Cl)c1` (stereo not drawn), the “tumour outcome (control, treated, inhibition, significance)” value (Carcinogen: 7,12-DIMETHYLBENZ[A]ANTHRACENE, 57-97-6, Dose [Inhibitor]: 0, 1000 PPM IN DIET FOR DURATION OF STUDY BEGINNING 1 WK PRIOR TO CARCINOGEN DOSE (STUDY DURATION: 107 D), Route [Inhibitor]: ORAL, Species: RAT, Strain/Sex: SPRAGUE-DAWLEY/FEMALE, Target Tissue: Type of Lesion: MAMMARY GLAND: ADENOCARCINOMA, Dose [Carcinogen]: 12 MG ONCE, Promoter: NONE USED) is listed as 96%, 84%, 13%, not significant and the “tumour outcome (control, treated, inhibition, significance)” value (Carcinogen: 7,12-DIMETHYLBENZ[A]ANTHRACENE, 57-97-6, Dose [Inhibitor]: 0, 2000 PPM IN DIET FOR DURATION OF STUDY BEGINNING 1 WK PRIOR TO CARCINOGEN DOSE (STUDY DURATION: 107 D), Route [Inhibitor]: ORAL, Species: RAT, Strain/Sex: SPRAGUE-DAWLEY/FEMALE, Target Tissue: Type of Lesion: MAMMARY GLAND: ADENOCARCINOMA, Dose [Carcinogen]: 12 MG ONCE, Promoter: NONE USED) is listed as 96%, 68%, 29%, not calculated.

In the case of `O=C1C=CC(=O)c2c(O)cccc21`, the “tumour outcome (control, treated, inhibition, significance)” value (Carcinogen: AZOXYMETHANE [25843-45-2], Dose [Inhibitor]: 200 PPM IN DIET FOR 4 WK BEGINNING 1 WK PRIOR TO FIRST CARCINOGEN DOSE (STUDY DURATION: 35 WK), Route [Inhibitor]: ORAL, Species: RAT, Strain/Sex: F344/MALE, Target Tissue: Type of Lesion: COLON: ADENOMA, Dose [Carcinogen]: 15 MG/KG BW 1X/WK FOR 3 WK (STUDY DURATION: 35 WK), Promoter: NONE) is listed as 6/28 (21%), 4/30 (13%), 38%, not significant, the “tumour outcome (control, treated, inhibition, significance)” value (Carcinogen: AZOXYMETHANE [25843-45-2], Dose [Inhibitor]: 200 PPM IN DIET FOR 4 WK BEGINNING 1 WK PRIOR TO FIRST CARCINOGEN DOSE (STUDY DURATION: 35 WK), Route [Inhibitor]: ORAL, Species: RAT, Strain/Sex: F344/MALE, Target Tissue: Type of Lesion: COLON: CARCINOMA, Dose [Carcinogen]: 15 MG/KG BW 1X/WK FOR 3 WK (STUDY DURATION: 35 WK), Promoter: NONE) is listed as 8/28 (29%), 11/30 (37%), -28%, not significant and the “tumour outcome (control, treated, inhibition, significance)” value (Carcinogen: AZOXYMETHANE [25843-45-2], Dose [Inhibitor]: 200 PPM IN DIET FOR 4 WK BEGINNING 1 WK PRIOR TO FIRST CARCINOGEN DOSE (STUDY DURATION: 35 WK), Route [Inhibitor]: ORAL, Species: RAT, Strain/Sex: F344/MALE, Target Tissue: Type of Lesion: SMALL INTESTINE: CARCINOMA, Dose [Carcinogen]: 15 MG/KG BW 1X/WK FOR 3 WK (STUDY DURATION: 35 WK), Promoter: NONE) is listed as 7/28 (25%), 2/30 (7%), 72%, p<0.05.

For `CC1=C(/C=C/C(C)=C/C=C/C(C)=C/C(=O)NCCCCO)C(C)(C)CCC1`, the “tumour outcome (control, treated, inhibition, significance)” value (Carcinogen: N-BUTYL-N-(4-HYDROXYBUTYL)NITROSAMINE, 3817-11-6, Dose [Inhibitor]: 1.5 MMOL/KG DIET DAILY FOR 133 D STARTING ONE WK AFTER THE FINAL CARCINOGEN DOSE (STUDY DURATION: 190 D), Route [Inhibitor]: ORAL, Species: MOUSE, Strain/Sex: BDF/MALE, Target Tissue: Type of Lesion: URINARY BLADDER: TRANSITIONAL CELL CARCINOMA, Dose [Carcinogen]: 7.5 MG 1/WK FOR 8 WK, Promoter: NONE USED) is given as 21/100 (21%), 21/100 (21%), 0%, not significant and the “tumour outcome (control, treated, inhibition, significance)” value (Carcinogen: N-BUTYL-N-(4-HYDROXYBUTYL)NITROSAMINE, 3817-11-6, Dose [Inhibitor]: 1.5 MMOL/KG IN DIET FOR 133 D STARTING 1 WK AFTER LAST CARCINOGEN DOSE (STUDY DURATION: 190 D), Route [Inhibitor]: ORAL, Species: MOUSE, Strain/Sex: DBF1/MALE, Target Tissue: Type of Lesion: URINARY BLADDER: TRANSITIONAL CELL CARCINOMA, Dose [Carcinogen]: 7.5 MG 1/WK FOR 8 WK, Promoter: NONE USED) is given as 21/100 (21%), 21/100 (21%), 0%, not significant.

In the case of `CC[C@H](C)C(=O)O[C@H]1CCC=C2C=C[C@H](C)[C@H](CC[C@@H]3C[C@@H](O)CC(=O)O3)[C@H]21`, the “tumour outcome (control, treated, inhibition, significance)” value (Carcinogen: N-ETHYL-N-HYDROXYETHYLNITROSAMINE, 13147-25-6, Dose [Inhibitor]: 0, 0.02% IN DIET BEGINNING 23 WK POST LAST CARCINOGEN DOSE AND CONTINUING TO WK 40 (STUDY DURATION: 40 WK), Route [Inhibitor]: ORAL, Species: RAT, Strain/Sex: WISTAR/MALE, Target Tissue: Type of Lesion: KIDNEY: RENAL CELL TUMORS, Dose [Carcinogen]: 0.1% IN DIET FOR 2 WK, Promoter: NONE USED) is listed as 6/17 (35%), 1/10 (10%), 71%, not calculated.

For `COc1ccc(CCN(C)CCCC(C#N)(c2ccc(OC)c(OC)c2)C(C)C)cc1OC` (stereo not drawn), the “tumour outcome (control, treated, inhibition, significance)” value (Carcinogen: 7,12-DIMETHYLBENZ[A]ANTHRACENE, 57-97-6, Dose [Inhibitor]: 0, 3.5 MG/KG/D IN DRINKING WATER (STUDY DURATION: 20 WK), Route [Inhibitor]: ORAL, Species: RAT, Strain/Sex: SPRAGUE-DAWLEY/FEMALE, Target Tissue: Type of Lesion: MAMMARY GLAND: TUMOR, Dose [Carcinogen]: 50 MG/KG ONCE, Promoter: NONE USED) is listed as 9/20 (45%), 3/20(15%), 67%, p< 0.05, the “tumour outcome (control, treated, inhibition, significance)” value (Carcinogen: 7,12-DIMETHYLBENZ[A]ANTHRACENE, 57-97-6, Dose [Inhibitor]: 0, 2 UMOL 1/WK FOR 21 WK APPLIED 1 HR POST EACH PROMOTER DOSE (STUDY DURATION: 21 WK), Route [Inhibitor]: DERMAL, Species: MOUSE, Strain/Sex: SENCAR/FEMALE, Target Tissue: Type of Lesion: SKIN: PAPILLOMA, Dose [Carcinogen]: 25 NMOL ONCE, Promoter: CHRYSAROBIN, 491-58-7) is listed as 90%, 82%, 9%, not significant and the “tumour outcome (control, treated, inhibition, significance)” value (Carcinogen: N-NITROSOMORPHOLINE, 59-89-2, Dose [Inhibitor]: 0, 20 MG/KG BW IN 0.9% SALINE 1/2 D FOR DURATION OF STUDY (STUDY DURATION: 16 WK), Route [Inhibitor]: INTRAPERITONEAL, Species: RAT, Strain/Sex: SPRAGUE-DAWLEY/MALE, Target Tissue: Type of Lesion: LIVER: HEPATOCELLULAR CARCINOMA, Dose [Carcinogen]: 175 MG/L IN DRINKING WATER FOR 8 WK, Promoter: NONE USED) is listed as 10/20 (50%), 3/20 (15%), 70%, p<0.05.

In the case of `CN(C)CCOC(c1ccccc1)c1ccccc1`, the “tumour outcome (control, treated, inhibition, significance)” value (Carcinogen: 7,12-DIMETHYLBENZ[A]ANTHRACENE, 57-97-6, Dose [Inhibitor]: 0, 0.086 UMOL 2/WK BEGINNING 1 WK POST CARCINOGEN DOSE AND CONTINUING FOR DURATION OF STUDY (STUDY DURATION: 15 WK), Route [Inhibitor]: DERMAL, Species: MOUSE, Strain/Sex: SENCAR/FEMALE, Target Tissue: Type of Lesion: SKIN: PAPILLOMA, Dose [Carcinogen]: 10 NMOL ONCE, Promoter: 12-O-TETRADECANOYLPHORBOL-13-ACETATE, 16561-29-8) is given as 97%, 75%, 23%, not calculated, the “tumour outcome (control, treated, inhibition, significance)” value (Carcinogen: 7,12-DIMETHYLBENZ[A]ANTHRACENE, 57-97-6, Dose [Inhibitor]: 0, 0.342 UMOL 2/WK BEGINNING 1 WK POST CARCINOGEN DOSE AND CONTINUING FOR DURATION OF STUDY (STUDY DURATION: 15 WK), Route [Inhibitor]: DERMAL, Species: MOUSE, Strain/Sex: SENCAR/FEMALE, Target Tissue: Type of Lesion: SKIN: PAPILLOMA, Dose [Carcinogen]: 10 NMOL ONCE, Promoter: 12-O-TETRADECANOYLPHORBOL-13-ACETATE, 16561-29-8) is given as 97%, 80%, 18%, not calculated and the “tumour outcome (control, treated, inhibition, significance)” value (Carcinogen: 7,12-DIMETHYLBENZ[A]ANTHRACENE, 57-97-6, Dose [Inhibitor]: 0, 0.856 UMOL 2/WK BEGINNING 1 WK POST CARCINOGEN DOSE AND CONTINUING FOR DURATION OF STUDY (STUDY DURATION: 15 WK), Route [Inhibitor]: DERMAL, Species: MOUSE, Strain/Sex: SENCAR/FEMALE, Target Tissue: Type of Lesion: SKIN: PAPILLOMA, Dose [Carcinogen]: 10 NMOL ONCE, Promoter: 12-O-TETRADECANOYLPHORBOL-13-ACETATE, 16561-29-8) is given as 97%, 75%, 23%, not calculated. For the same compound, the “tumour outcome (control, treated, inhibition, significance)” value (Carcinogen: 7,12-DIMETHYLBENZ[A]ANTHRACENE, 57-97-6, Dose [Inhibitor]: 0, 10 MG A WK IN DRINKING WATER BEGINNING 1 WK POST CARCINOGEN DOSE AND CONTINUING FOR DURATION OF STUDY (STUDY DURATION, Route [Inhibitor]: ORAL, Species: MOUSE, Strain/Sex: SENCAR/MALE, Target Tissue: Type of Lesion: SKIN: PAPILLOMA, Dose [Carcinogen]: 100 NMOL IN 200 µL ACETONE ONCE, Promoter: 12-O-TETRADECANOYLPHORBOL-13-ACETATE, 16561-29-8) was 95%, 98%, -3%, not calculated.

For `C[Se]C[C@H](N)C(=O)O`, the “tumour outcome (control, treated, inhibition, significance)” value (Carcinogen: 7,12-DIMETHYLBENZ[A]ANTHRACENE, 57-97-6, Dose [Inhibitor]: 0, 0.000025 MOL/KG DIET BEGINNING 1 WK POST CARCINOGEN AND CONTINUED FOR STUDY DURATION (STUDY DURATION: 25 WK), Route [Inhibitor]: ORAL, Species: RAT, Strain/Sex: CD-1/FEMALE, Target Tissue: Type of Lesion: MAMMARY GLAND: ADENOCARCINOMA, Dose [Carcinogen]: 10 MG ONCE, Promoter: NONE USED) is listed as 25/30 (83%), 15/30 (50%), 40%, p<0.05, the “tumour outcome (control, treated, inhibition, significance)” value (Carcinogen: 7,12-DIMETHYLBENZ[A]ANTHRACENE, 57-97-6, Dose [Inhibitor]: 0, 0.000025 MOL/KG DIET BEGINNING 2 WK PRIOR TO CARCINOGEN AND CONTINUED 1 WK POST CARCINOGEN (STUDY DURATION: 25 WK), Route [Inhibitor]: ORAL, Species: RAT, Strain/Sex: CD-1/FEMALE, Target Tissue: Type of Lesion: MAMMARY GLAND: ADENOCARCINOMA, Dose [Carcinogen]: 10 MG ONCE, Promoter: NONE USED) is listed as 25/30 (83%), 17/30 (57%), 31%, p<0.05 and the “tumour outcome (control, treated, inhibition, significance)” value (Carcinogen: 7,12-DIMETHYLBENZ[A]ANTHRACENE, 57-97-6, Dose [Inhibitor]: 0, 0.000025 MOL/KG DIET BEGINNING 2 WK PRIOR TO CARCINOGEN AND CONTINUED FOR STUDY DURATION (STUDY DURATION: 25 WK), Route [Inhibitor]: ORAL, Species: RAT, Strain/Sex: CD-1/FEMALE, Target Tissue: Type of Lesion: MAMMARY GLAND: ADENOCARCINOMA, Dose [Carcinogen]: 10 MG ONCE, Promoter: NONE USED) is listed as 22/25 (88%), 10/25 (40%), 55%, p<0.05.
